These results are taken from PubChem BioAssay (NCI).

What all share (test): NCI tumour cell line growth inhibition, 48 h
For test [1], the system named is NCI-H226 lung.
The subject of test [2] is SF-295 CNS.
Test [3] deals with TK-10 renal.
In test [4] the test system is KM12 colon.
The subject of test [5] is MDA-MB-435.
Test [6] has as its system SK-MEL-5 melanoma.
Test [7] has as its system LOX IMVI melanoma.
The test system of test [8] is NCI-H460 lung.
For test [9], the system named is SNB-19 CNS.
Test [10] deals with NCI-H23 lung.

SMILES strings stand for the structures.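 Cultured in 96-well plates, cells were exposed to test compound for 48 hours across five concentrations. At the TGI there is no net growth.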

For `Cc1cccc2c1c(=O)c1c(O)c3c(cc1n2C)OC(C)(C)C=C3`, the TGI in test [1], in [2], in test [3], in test [4], in [5] and in test [6] was greater than 10 µM in each case. The TGI in test [7], in test [8], in [9] and in test [10] was greater than 10 µM throughout.
Turning to `S=C1CCSc2c(ccc3ccccc23)N1`, the TGI in test [1], in test [2], in test [3], in test [4], in test [5] and in test [6] was greater than 100 µM throughout. For the same molecule, the TGI in test [7], in test [8], in [9] and in test [10] was greater than 100 µM throughout.
Take `CCOC(=O)C1(C(=O)OCC)OC(C)=NC1(C(=O)OC)C(=O)OC`: the TGI in [1], in test [2], in test [3], in test [4], in test [5] and in test [6] was greater than 100 µM in each case. Besides, the TGI in [7], in test [8], in test [9] and in test [10] was greater than 100 µM throughout.
Consider `CCOC(=O)C(Cc1ccc(OC(=O)c2ccc(OC)cc2)cc1)NC(=O)C(F)(F)F` (stereo not given), for which the TGI in test [1], in test [2], in test [3], in test [4], in test [5] and in test [6] was greater than 100 µM each time. Further, the TGI in test [7], in test [8], in test [9] and in test [10] was greater than 100 µM each time.
In the case of `Cn1c(=O)c2c(nc3n2CCCC(=O)N3CC(O)CCl)n(C)c1=O` (stereo not given), the TGI in test [1], in test [2], in test [3], in test [4], in test [5] and in [6] was greater than 100 µM each time. Also, the TGI in [7], in test [8], in [9] and in test [10] was greater than 100 µM each time.
Take `COC(O)C(=O)c1ccc2c(c1)CC1(C2)Cc2cc3c(cc2C1=O)CCC3` (stereo not given): the TGI came to 43.6 µM in test [1]; 44.1 µM in test [2]; 36.2 µM in [3]; 43.9 µM in test [4]; 35.3 µM in test [5]; 29.4 µM in test [6]. Besides, the TGI in test [7] came out at 10.1 µM; in test [8], 70.6 µM; in test [9] it was 34.5 µM; in test [10], 56.2 µM.
As to `Cc1ccc(O)c(C2=CC(c3cccc(Cl)c3)SC(N)=N2)c1` (stereo not given), the TGI in test [1] is 38.9 µM; in test [2] it was 36.9 µM; in [3], 51.7 µM; in test [4], 89.6 µM; in test [5], 37.1 µM; in test [6], 30.1 µM. Further, the TGI is 34.7 µM in test [7], 64 µM in test [8], 37.7 µM in test [9] and 80.1 µM in test [10].
Consider `CCOC(=O)C1=CCOc2cc(N(C)C)ccc21`, for which the TGI in test [1], in test [2], in test [3], in [4], in [5] and in test [6] was greater than 100 µM in each case. The TGI in [7], in test [8], in test [9] and in [10] was greater than 100 µM each time.
`Cc1ccc(S(=O)(=O)Oc2nc3ccccc3nc2OS(=O)(=O)c2ccc(C)cc2)cc1`: the TGI in [1] was greater than 100 µM; in test [2], greater than 100 µM; in test [3], greater than 100 µM; in [4], greater than 100 µM; in test [5] it was greater than 100 µM; in [6], 56.1 µM. Besides, the TGI in test [7], in test [8], in test [9] and in test [10] was greater than 100 µM each time.
